# Measurements published in PMC9655119, “Sustained Activation of CLR/RAMP Receptors by Gel-Forming Agonists” (International Journal of Molecular Sciences, 2022).
# Tests used:
# [1] = molecular target: T1, human CLR/RAMP2 (Homo sapiens, UniProt O60895+Q16602); test: CLR/RAMP2 receptor-activation assay (PathHunter β-Arrestin); type: cell-based; conditions: for Emax: percentage of positive control ADM1-52, read-out: CLR/RAMP2 Max Activity
# T1 construct: host or cells: CHO-K1 cells (PathHunter β-Arrestin cell line)
# Method in brief: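 CHO-K1 cells stably co-expressing PK-tagged human CLR/RAMP2 and enzyme-acceptor-β-arrestin, exposed to peptides for 90 min at 37 °C (1% vehicle). β-Arrestin recruitment read by β-galactosidase complementation.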
# [2] = molecular target: T2, human CLR/RAMP1 (Homo sapiens, UniProt O60894+Q16602); test: CLR/RAMP1 receptor-activation assay (DiscoverX cAMP Hunter, HitHunter cAMP XS+); type: cell-based; conditions: for EC50: 1321N1 cells stably expressing human CLR/RAMP1, cAMP read-out, 10-point dose-response in duplicate, start 1.0 μM, 3-fold serial dilution in DMSO; for Emax: percentage of positive control β-CGRP, read-out: CLR/RAMP1 Max Activity
# T2 construct: host or cells: 1321N1 cells (cAMP Hunter cell line)
# [3] = system: primary human lymphatic microvascular endothelial (HLME) cells; test: HLME cell survival (MTT assay); type: cell-based; conditions: 30, 100, 300 nmoles/L, medium with 0.1% FBS, 72 h, quintuplicate samples
# Method: (§1) Primary human lymphatic microvascular endothelial cells (HLME cells; Cell Applications, Inc., San Diego, CA, USA) were maintained in a microvascular endothelial cell growth medium supplemented with 10% fetal bovine serum (FBS). […] After 72-h incubation, cell viability was determined with the 3-(4,5-dimethylthiazol-2-yl)-2,5-diphenyltetrazolium bromide (MTT) assay (Promega). To evaluate the effects on endothelial cell survival, HLME cells were treated with different concentrations of the agonist or controls (30, 100, and 300 nmoles/L) and cultured in a basal medium with 0.1% FBS for 72 h. Cell viability was then assayed with the MTT assay.
# [4] = system: primary human lymphatic microvascular endothelial (HLME) cells; test: HLME cell proliferation (MTT assay); type: cell-based; conditions: 30, 100, 300 nmoles/L, medium with 2% FBS, 72 h, quintuplicate samples
# Method: as §1
# [5] = Release of Analog C-6 from the gel solution in vivo (single-dose pharmacokinetics); set-up: species or system Sprague–Dawley rats; conditions: plasma
# Method: Single-dose pharmacokinetics of the Analog C-6 gel solution was investigated in male Sprague–Dawley rats. Rats received a gel solution via the subcutaneous route, and blood samples were collected at pre-dose, 8 h, 1, 2, 4, and 8 days via a catheter that had been cannulated to the jugular vein. Plasma was obtained by centrifugation, and the peptide level in samples was determined by specific ADM EIA (Phoenix Pharmaceuticals Inc.).
# [6] = Passage of peptide molecules through Centricon filters; type: physicochemical
# Method: To evaluate whether gel formation reduces the movement of peptide molecules in solution, we used the Centricon® filters (Millipore) to separate samples and the carriers based on their molecular mass. The sample is monomeric peptide, and the carrier is the self-assembled gel. […] Ten minutes later, the solution was diluted to the 0.1% level, and aliquots of the samples were dispensed into separate Centricon columns (30,000 MW cutoff). The monomeric peptides and gel molecules were separated by centrifugation for 15 min (2000× g). The level of peptide in the elutes was determined by specific EIAs (Phoenix Pharmaceuticals Inc., Burlingame, CA, USA).
# [7] = Microrheology viscosity assay (Rheosense viscometer); type: physicochemical; conditions: 5% peptide solution in 5% glucose
# Method: We initially determined the gel-forming capability of peptides qualitatively based on a visual examination of the gel solution using a tube-tapping method. Once we have a rough estimate of the gel-forming capability, we quantitatively determine the viscosity of select peptides using a Rheosense viscometer (Rheosense Inc.; http://www.rheosense.com, accessed on 1 December 2019). In the visual assay, aliquots of peptides were dissolved in an aqueous solution (i.e., de-ionized water, saline, or 5% glucose solution). The peptide that dissolves instantly and stays as a clear solution without obvious macroscopic change in viscosity at 20 min after mixing was considered soluble. If macroscopic particles of peptides remained in the solution for 20 min after mixing, the peptide was considered insoluble. […] In addition, we quantitatively determined the viscosity of Analog C-6 and control peptides using a viscometer. The Rheosense microrheology viscometer uses a “chip” flow channel to quantify the viscosity of a solution as small as 50 μL. After loading the aqueous solution, the sample was injected through the flow channel with multiple pressure sensors, and the rheological properties were determined based on the standard principles of rheometry.
# T1 sequence (Q16602 23-461): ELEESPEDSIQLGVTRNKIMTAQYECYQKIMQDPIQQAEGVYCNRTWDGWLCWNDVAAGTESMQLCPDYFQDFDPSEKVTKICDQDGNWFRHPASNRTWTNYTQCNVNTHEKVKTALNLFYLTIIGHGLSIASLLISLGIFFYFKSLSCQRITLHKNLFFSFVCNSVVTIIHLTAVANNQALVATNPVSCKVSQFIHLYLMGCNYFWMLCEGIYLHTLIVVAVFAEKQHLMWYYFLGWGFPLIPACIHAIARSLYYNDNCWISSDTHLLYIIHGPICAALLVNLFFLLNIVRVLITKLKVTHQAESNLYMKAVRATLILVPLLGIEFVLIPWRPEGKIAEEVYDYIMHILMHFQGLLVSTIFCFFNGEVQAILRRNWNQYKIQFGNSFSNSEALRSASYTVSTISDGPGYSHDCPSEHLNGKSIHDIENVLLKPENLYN
# T1 sequence (O60895 43-175): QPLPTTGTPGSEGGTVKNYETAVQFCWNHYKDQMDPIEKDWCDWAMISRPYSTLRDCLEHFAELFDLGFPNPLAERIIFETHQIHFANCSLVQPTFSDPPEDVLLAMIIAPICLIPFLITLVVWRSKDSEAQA
# T2 sequence (Q16602 23-461): as the sequence (Q16602 23-461) above
# T2 sequence (O60894 27-148): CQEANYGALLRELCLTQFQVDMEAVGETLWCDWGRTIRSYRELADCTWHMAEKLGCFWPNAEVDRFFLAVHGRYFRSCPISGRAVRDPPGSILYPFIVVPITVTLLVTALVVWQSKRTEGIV
Emax [1],EC50 [2],Emax [2],"EC50 ([1]; CHO-K1 cells stably expressing human CLR/RAMP2, β-arrestin recruitment, 90 min at 37 °C, 10-point dose-response in duplicate, start 1.0 μM, 3-fold dilution in DMSO)","time during which circulating level was significantly increased ([5]; male Sprague–Dawley rats, s.c., 32 mg in 16% gel solution, ADM EIA, n = 3)","Tmax ([5]; male, Sprague-Dawley, rat, sc, 32 mg, read-out: time of peak circulating peptide level)",solubility in saline solution ([6]; 0.1% peptide in saline),viscosity compared with water [7],Compound,effect on HLME cell survival [3],effect on HLME cell proliferation [4],"peptide level in Centricon elute, 5% and 20% solution groups versus 0.1% solution ([6]; Centricon 30,000 MW cutoff, 2000× g 15 min, 5% glucose, samples diluted to 0.1% after 10 min, CGRP or ADM EIA, triplicate)"
102%,> 100 nM,69%,,,,,,"CC[C@H](C)[C@H](NC(=O)[C@H](CCC(N)=O)NC(=O)[C@H](Cc1c[nH]cn1)NC(=O)[C@H](C)NC(=O)[C@H](CC(C)C)NC(=O)[C@H](CCCCN)NC(=O)[C@H](CCC(N)=O)NC(=O)[C@@H](NC(=O)[C@@H](NC(=O)[C@@H]1CSSC[C@H](NC(=O)CNC(=O)[C@@H](N)Cc2ccccc2)C(=O)N[C@@H](CCCNC(=N)N)C(=O)N[C@@H](Cc2ccccc2)C(=O)NCC(=O)N[C@@H]([C@@H](C)O)C(=O)N1)[C@@H](C)O)C(C)C)C(=O)N[C@@H](Cc1ccc(O)cc1)C(=O)N[C@@H](CCC(N)=O)C(=O)N[C@@H](Cc1ccccc1)C(=O)N[C@H](C(=O)N[C@@H](CC(=O)O)C(=O)N[C@@H](CCCCN)C(=O)N[C@@H](CC(=O)O)C(=O)N[C@@H](CCCCN)C(=O)N[C@@H](CC(=O)O)C(=O)N[C@@H](CC(N)=O)C(=O)N[C@H](C(=O)N[C@@H](C)C(=O)N1CCC[C@H]1C(=O)N[C@@H](CCCNC(=N)N)C(=O)N[C@@H](CO)C(=O)N[C@@H](CCCCN)C(=O)N[C@H](C(=O)N[C@@H](CO)C(=O)N1CCC[C@H]1C(=O)N[C@@H](CCC(N)=O)C(=O)NCC(=O)N[C@@H](Cc1ccc(O)cc1)C(N)=O)[C@@H](C)CC)C(C)C)[C@@H](C)O [ADM14-52, reference compound]",minimal effects,minimal effects,
87%,24 nM,78%,2.8 nM,8 to 48 h,8 h,low solubility,,CCCCCCCCCCCCCCCC(=O)NCCCC[C@H](N)C(=O)NCC(=O)N[C@H]1CSSC[C@@H](C(=O)N[C@H](C(=O)N[C@H](C(=O)N[C@@H](CCC(N)=O)C(=O)N[C@@H](CCCCN)C(=O)N[C@@H](CC(C)C)C(=O)N[C@@H](C)C(=O)N[C@@H](Cc2c[nH]cn2)C(=O)N[C@@H](CCC(N)=O)C(=O)N[C@H](C(=O)N[C@@H](Cc2ccc(O)cc2)C(=O)N[C@@H](CCC(N)=O)C(=O)N[C@@H](Cc2ccccc2)C(=O)N[C@H](C(=O)N[C@@H](CC(=O)O)C(=O)N[C@@H](CCCCN)C(=O)N[C@@H](CC(=O)O)C(=O)N[C@@H](CCCCN)C(=O)N[C@@H](CC(=O)O)C(=O)N[C@@H](CC(N)=O)C(=O)N[C@H](C(=O)N[C@@H](C)C(=O)N2CCC[C@H]2C(=O)N[C@@H](CCCNC(=N)N)C(=O)N[C@@H](CO)C(=O)N[C@@H](CCCCN)C(=O)N[C@H](C(=O)N[C@@H](CO)C(=O)N2CCC[C@H]2C(=O)N[C@@H](CCC(N)=O)C(=O)NCC(=O)N[C@@H](Cc2ccc(O)cc2)C(N)=O)[C@@H](C)CC)C(C)C)[C@@H](C)O)[C@@H](C)CC)C(C)C)[C@@H](C)O)NC(=O)[C@H]([C@@H](C)O)NC(=O)CNC(=O)[C@H](Cc2ccccc2)NC(=O)[C@H](CCCNC(=N)N)NC1=O [Analog C-6],,,
,,,,,,,significantly higher than that of water,"adrenomedullin [ADM, reference compound]",,,lower than that of the 0.1% solution group
